Reference: patent US20210238173A1, “MITOGEN-ACTIVATED PROTEIN KINASE KINASE 7 INHIBITORS” (Yeda Research and Development Co. Ltd., priority 2018, published 2021)

How the values were obtained:
[1] = Metabolic stability in human liver microsomes; type: in vitro ADME
Description: (§1) A reference compound, REF1250, was used in this study: […]

MKK7 = molecular target: T1, MKK7 (Homo sapiens, UniProt O14733); experiment: In vitro kinase activity assay for MKK7 (Nanosyn); type: biochemical; settings: read-out: MKK7 IC50 in vitro
T1 construct: purchased Nanosyn (contract assay)
T1 sequence (O14733 1-419): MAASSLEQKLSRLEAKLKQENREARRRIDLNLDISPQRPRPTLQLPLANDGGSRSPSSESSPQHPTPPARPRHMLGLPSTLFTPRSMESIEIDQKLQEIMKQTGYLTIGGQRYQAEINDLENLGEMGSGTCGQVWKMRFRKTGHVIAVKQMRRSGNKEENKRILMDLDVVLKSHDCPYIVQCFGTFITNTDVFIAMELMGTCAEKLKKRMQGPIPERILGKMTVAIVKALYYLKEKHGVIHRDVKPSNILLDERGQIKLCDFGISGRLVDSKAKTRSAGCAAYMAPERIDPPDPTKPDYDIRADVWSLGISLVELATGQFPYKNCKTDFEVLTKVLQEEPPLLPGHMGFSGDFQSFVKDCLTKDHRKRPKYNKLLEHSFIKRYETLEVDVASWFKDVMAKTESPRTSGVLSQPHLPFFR
Method: Based on visual inspection of the top 500 predictions, 10 compounds were selected for synthesis and testing (see, Table 1). The “Docking rank” is given in its respective run, whereas four virtual libraries of acrylamides were docked separately, based on the amine precursor for the acrylamide (primary or secondary aliphatic amines, primary or secondary aromatic amines). In vitro kinase activity assay was carried out by Nanosyn, as described below.
(§2) In Vitro Activity Assays for MKK7 or MKK4 (Carried by Nanosyn):
(§3) Exemplary test compounds, according to some embodiments of the present invention, were diluted in DMSO to a final concentration that ranged from 10 μM to 0.0565 nM, while final concentration of DMSO in all assays was kept at 1%. Reference compound, Staurosporine, was tested in a similar manner. […] After incubation, activity of now activated JNK1 was tested in the presence of 30 μM ATP ATP for 17 h (MKK7) or 4 h (MKK4).

[2] = Metabolic stability in mouse liver microsomes; type: in vitro ADME
Description: as §1

MKK4 = molecular target: T2, MKK4 (Homo sapiens, UniProt P45985); experiment: In vitro activity assay for MKK4 (Nanosyn); type: biochemical
T2 construct: purchased Nanosyn (contract assay)
T2 sequence (P45985 1-399): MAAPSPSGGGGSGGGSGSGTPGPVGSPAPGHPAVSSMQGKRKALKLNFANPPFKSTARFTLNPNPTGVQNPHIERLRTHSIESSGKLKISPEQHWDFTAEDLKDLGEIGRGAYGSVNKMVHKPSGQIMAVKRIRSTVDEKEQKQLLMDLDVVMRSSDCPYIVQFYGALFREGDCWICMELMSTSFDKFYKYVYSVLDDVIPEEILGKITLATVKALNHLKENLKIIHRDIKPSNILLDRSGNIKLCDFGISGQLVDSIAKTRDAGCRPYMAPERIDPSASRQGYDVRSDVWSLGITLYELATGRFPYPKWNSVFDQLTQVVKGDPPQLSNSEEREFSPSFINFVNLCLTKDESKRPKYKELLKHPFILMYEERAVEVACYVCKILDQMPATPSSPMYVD
Method: as §2, §3

[3] = Metabolic stability in rat liver microsomes; type: in vitro ADME
Description: as §1

pJNK in HEK293 cells = experiment: In-cell western (ICW) pJNK inhibition in HEK293; type: cell-based; settings: 2 h pre-incubation, sorbitol stimulation
Method: (§4) HEK293, Beas2B and 3T3 cells were plated 24 hours before procedure on 384 well clear bottom black flat plates (Corning) pre-coated with Fibronectin (Sigma) diluted in PBS to a concentration of 5 μg/ml 45 minutes prior to cells introduction. Cells were plated using Multidrop™ Combi reagent dispenser (Thermo Fisher Scientific). Compound, reagents and antibody dispensing as well as washes were performed with a CyBio liquid handler (Analytik). Cells were pre-incubated with a small molecule or up to 1% DMSO for 2 h before fixation. HEK293, 3T3 or Beas2B cells were treated with 0.6M/0.2M/0.2M D-Sorbitol/PBS (Sigma) for 20/40/40 min. respectively, before fixation. Media was removed and wells were immediately fixed with 150 μl per well of 3.7% formaldehyde/PBS fixing solution for 20 min. Formaldehyde was then aspired and cells were permeabilized with 150 μl of 0.5% Triton x-100/PBS solution for 10 min. After aspiration cells were washed with ice-cold methanol and stored at −20° C., for 10 min. Methanol was aspired and cells were blocked with 150 μl blocking buffer (LICOR) for 90 min. Primary antibody Phospho-SAPK/JNK T183/Y185 (CST; 9251S) was diluted 1:1000 in blocking buffer and was applied 50 μl per well, except control wells to which only blocking buffer was applied, O.N. (16 h) at 4° C. with mild shaking. Primary antibody was aspired, wells were washed with 150 μl 0.1% Tween20/PBS (Sigma) washing solution three times for 7 min. IRDye® 800CW Goat anti-Rabbit IgG Secondary antibody (LICOR) was then diluted 1:1200 in blocking buffer with 50 μl applied per well on control wells only (no CellTag control), then CellTag700 (1:2000) was added to the solution and 50 μl were added to all experiment wells, for 1 h at room temperature. Wells were aspired and washed again with 150 μl 0.1% Tween20/PBS (Sigma) washing solution three times for 7 min. plate was dried and scanned with Odyssey CLx imaging system at 700 nm and 800 nm (Licor). Wells signals were analyzed with Odyssey software. The signal was normalized by the CellTag700 signal.
(§5) To rapidly assess the cellular activity (EC50) with full dose response curves of the MKK7 covalent inhibitors, according to some embodiments of the present invention, an in-cell western assay was adapted to a 384 well plate format over traditional western blot, and monitored phospho-JNK (pJNK) levels in response to osmotic shock. We first characterized the dynamics of pJNK in response to sorbitol. Sufficient dynamic range for pJNK is achieved at 20 minutes in HEK293 cells and at 40 minutes in 3T3 and Beas2B cells. The compound's activity was assessed by pre-treating cells with either compound or DMSO for 2 hours, followed by Sorbitol stimulation. The response of pJNK, and its substrates, pc-Jun and pATF2, was measured, as well as pP38, which is a substrate of MKK4 but not MKK7, and pERK in HEK293 cells, and the results are presented in Table 5 below.

[4] = Metabolic stability in dog liver microsomes; type: in vitro ADME
Description: as §1

[5] = Metabolic stability in monkey liver microsomes; type: in vitro ADME
Description: as §1

JNK activation = experiment: KTR reporter live cell imaging of JNK activation; type: cell-based; settings: Homo sapiens; HEK293 cells; read-out: EC50 of test and control compounds
Description: As an orthogonal assay for the ICW we used a KTR reporter cell line for JNK activation via live cell imaging.

p-cJun in HEK293 cells = experiment: p-cJun inhibition in HEK293 cells; type: cell-based; settings: Homo sapiens
Method: as §4, with “Primary antibody was aspired, wells were washed with 150 μl 0.1% Tween20/PBS (Sigma) washing solution three times for 7 min. IRDye® 800CW Goat anti-Rabbit IgG Secondary antibody (LICOR) was then diluted 1:1200 in blocking buffer with 50 μl applied per well on control wells only (no CellTag control), then CellTag700 (1:2000) was added to the solution and 50 μl were added to all experiment wells, for 1 h at room temperature. Wells were aspired and washed again with 150 μl 0.1% Tween20/PBS (Sigma) washing solution three times for 7 min. plate was dried and scanned with Odyssey CLx imaging system at 700 nm and 800 nm (Licor).” left out, “The signal was normalized by the CellTag700 signal.” left out
as §5, with “We first characterized the dynamics of pJNK in response to sorbitol. Sufficient dynamic range for pJNK is achieved at 20 minutes in HEK293 cells and at 40 minutes in 3T3 and Beas2B cells.” left out

pERK in HEK293 cells = experiment: pERK response in HEK293 cells; type: cell-based; settings: at 10 μM
Method: as §5
(§6) With similar values for pcJun (2.26 μM and 1.67 μM, respectively) and pATF2 (2.79 μM 5.19 μM, respectively).

pJNK in 3T3 WT cells = experiment: In-cell western (ICW) pJNK inhibition in 3T3 WT; type: cell-based; settings: 3T3 WT, sorbitol stimulation; for EC50: ICW, 2 h pre-incubation
Method: as §4, §5
Wildtype 3T3 cells, 3T3 MKK7 double knock-out (MKK7^−/−) cells and MKK4/7 double knockouts (MKK4/7^−/−) were used to validate on target activity of the MKK7 covalent inhibitors presented herein.

pATF2 in HEK293 cells = experiment: pATF2 inhibition in HEK293 cells; type: cell-based; settings: Homo sapiens
Method: as §4, with “Primary antibody was aspired, wells were washed with 150 μl 0.1% Tween20/PBS (Sigma) washing solution three times for 7 min. IRDye® 800CW Goat anti-Rabbit IgG Secondary antibody (LICOR) was then diluted 1:1200 in blocking buffer with 50 μl applied per well on control wells only (no CellTag control), then CellTag700 (1:2000) was added to the solution and 50 μl were added to all experiment wells, for 1 h at room temperature. Wells were aspired and washed again with 150 μl 0.1% Tween20/PBS (Sigma) washing solution three times for 7 min. plate was dried and scanned with Odyssey CLx imaging system at 700 nm and 800 nm (Licor).” left out, “The signal was normalized by the CellTag700 signal.” left out
as §5, with “We first characterized the dynamics of pJNK in response to sorbitol. Sufficient dynamic range for pJNK is achieved at 20 minutes in HEK293 cells and at 40 minutes in 3T3 and Beas2B cells.” left out

pP38 in HEK293 cells = experiment: pP38 response in HEK293 cells; type: cell-based; settings: at 10 μM
Method: as §5, §6

primary mouse B-cells = experiment: Primary B-cell activation (CD86+ FACS) in response to LPS; type: cell-based; settings: 10 μM, 2 hours pre-incubation
Description: Compounds Block Activation of Primary Mouse B-Cells:
JNK is known to mediate activation of B-cells in response to lypopolysacharide (LPS) through the TLR4 signaling pathway as well as in response to B-cell receptor activation (stimulated e.g. with an anti-IgM antibody). Primary B-cells were isolated from the spleen of mice and assessed for their B-cell activation, via FACS analysis of CD86+ expression, in response to LPS in the presence or absence of the covalent MKK7 enzyme inhibitors presented herein, as well as a positive control JNK inhibitor, JNK-IN-8.
At 10 μM and 2 hours pre-incubation before stimulation, GO80 was able to inhibit 60% of the CD86+ response.

[6] = Homo sapiens, HEK293, HEK293, ICW

| SMILES | % remaining @ 40 min [1] [%] | IC50 (MKK7) [nM] | % remaining @ 40 min [2] [%] | IC50 (MKK4) [nM] | % remaining @ 40 min [3] [%] | % remaining @ 40 min [4] [%] | % remaining @ 40 min [5] [%] | EC50 (pJNK in HEK293 cells; HEK293, ICW) [nM] | EC50 (pJNK in HEK293 cells; [6]) [nM] | EC50 (pJNK in 3T3 WT cells) [nM] | inhibition of the CD86+ response (primary mouse B-cells) [%] | further results |
| --- | --- | --- | --- | --- | --- | --- | --- | --- | --- | --- | --- | --- |
| C=CC(=O)Nc1cccc(-c2nn(C)c3ccccc23)c1 [PCM521] | – | – | – | – | – | – | – | – | – | – | – | EC50 (JNK activation): > 10000 nM |
| Cc1cc(NC(=O)c2cccc(NC(=O)/C=C/CN(C)C)c2)ccc1Nc1nccc(-c2cccnc2)n1 [JNK-IN-8, reference compound] | – | – | – | – | – | – | – | – | – | – | ~90 | – |
| C=CC(=O)Nc1cc(-c2n[nH]c3ccccc23)ccn1 [PCM475] | 0 | – | 0 | – | 22 | 5 | 18 | 900 | – | 300 | ~90 | Halflife [1]: <5 min; Halflife [2]: <5 min; Halflife [3]: 18 min; Halflife [4]: 9 min; Halflife [5]: 16 min |

The next lines start with results.

| % remaining @ 40 min [1] [%] | IC50 (MKK7) [nM] | % remaining @ 40 min [2] [%] | IC50 (MKK4) [nM] | % remaining @ 40 min [3] [%] | % remaining @ 40 min [4] [%] | % remaining @ 40 min [5] [%] | SMILES | EC50 (pJNK in HEK293 cells; HEK293, ICW) [nM] | EC50 (pJNK in HEK293 cells; [6]) [nM] | EC50 (pJNK in 3T3 WT cells) [nM] | inhibition of the CD86+ response (primary mouse B-cells) [%] | further results |
| --- | --- | --- | --- | --- | --- | --- | --- | --- | --- | --- | --- | --- |
| 0 | 2 | 0 | > 10000 | 6 | 0 | 0 | C=CC(=O)Nc1cc(C#N)cc(-c2n[nH]c3cc(C)ccc23)c1 [GO108] | 2300 | 3700 | – | – | half-life ([1]; human, liver microsomes): < 5 min; half-life ([2]; mouse, liver microsomes): < 5 min; half-life ([3]; rat, liver microsomes): 10 min; half-life ([4]; dog, liver microsomes): < 5 min; half-life [5]: < 5 min |
| – | 14 | – | > 10000 | – | – | – | C=CC(=O)Nc1cccc(-c2n[nH]c3cc([N+](=O)[O-])ccc23)c1 [GO37] | – | 730 | 4200 | – | EC50 (p-cJun in HEK293 cells): 2520 nM; effect on pERK levels (pERK in HEK293 cells): did not affect; IC50 (pJNK in 3T3 WT cells): 5330 nM; EC50 (pATF2 in HEK293 cells): 3710 nM; effect on pP38 levels (pP38 in HEK293 cells): did not affect |
